# Measured values as given in patent US10711004B2 (Genentech, Inc., priority 2018, dated 2020).
# Like-named read-outs stand apart in the source and are kept apart here.
# Biological target: human TRPA1 channel (Homo sapiens (Human), UniProt O75762)
# Assay: hTRPA1 CHO Ca2+ FLIPR Tetra assay, block of cinnamaldehyde induced calcium influx
# Type: cell-based
# Conditions: CHO cells expressing TRPA1, Hill coefficient fixed to 1.5
# Protocol: CHO cells expressing TRPA1 were plated into 384-well plates, incubated overnight at 37° C., and loaded with BD calcium indicator dye for 1 hr at 37° C. followed by 15 minutes at room temperature. The assay buffer was Hank's Balanced Salt Solution (HBSS) containing 20 mM HEPES (pH readjusted to 7.4) along with 0.02% BSA.
# Following dye load and plate cool down, compounds were added to the cells using FLIPR Tetra. Plates were then incubated with compounds for 10 minutes or 90 minutes at room temperature prior to adding agonist. Following this incubation, about an EC50 concentration of cinnamaldehyde (75) was added to active the channels and block of cinnamaldehyde induced calcium influx was measured.
# Fixing the Hill coefficient will generally reduce variability of the IC50 determination. The IC50 results were individually examined to make sure the MIN and MAX points were set correctly prior to validation of the results.
# [1] = read-out: hTRPA1 IC50 (10 min), compounds incubated 10 minutes at room temperature before cinnamaldehyde agonist
# [2] = compounds incubated 10 minutes at room temperature before cinnamaldehyde agonist
# Sequence of human TRPA1 channel (O75762 whole entry): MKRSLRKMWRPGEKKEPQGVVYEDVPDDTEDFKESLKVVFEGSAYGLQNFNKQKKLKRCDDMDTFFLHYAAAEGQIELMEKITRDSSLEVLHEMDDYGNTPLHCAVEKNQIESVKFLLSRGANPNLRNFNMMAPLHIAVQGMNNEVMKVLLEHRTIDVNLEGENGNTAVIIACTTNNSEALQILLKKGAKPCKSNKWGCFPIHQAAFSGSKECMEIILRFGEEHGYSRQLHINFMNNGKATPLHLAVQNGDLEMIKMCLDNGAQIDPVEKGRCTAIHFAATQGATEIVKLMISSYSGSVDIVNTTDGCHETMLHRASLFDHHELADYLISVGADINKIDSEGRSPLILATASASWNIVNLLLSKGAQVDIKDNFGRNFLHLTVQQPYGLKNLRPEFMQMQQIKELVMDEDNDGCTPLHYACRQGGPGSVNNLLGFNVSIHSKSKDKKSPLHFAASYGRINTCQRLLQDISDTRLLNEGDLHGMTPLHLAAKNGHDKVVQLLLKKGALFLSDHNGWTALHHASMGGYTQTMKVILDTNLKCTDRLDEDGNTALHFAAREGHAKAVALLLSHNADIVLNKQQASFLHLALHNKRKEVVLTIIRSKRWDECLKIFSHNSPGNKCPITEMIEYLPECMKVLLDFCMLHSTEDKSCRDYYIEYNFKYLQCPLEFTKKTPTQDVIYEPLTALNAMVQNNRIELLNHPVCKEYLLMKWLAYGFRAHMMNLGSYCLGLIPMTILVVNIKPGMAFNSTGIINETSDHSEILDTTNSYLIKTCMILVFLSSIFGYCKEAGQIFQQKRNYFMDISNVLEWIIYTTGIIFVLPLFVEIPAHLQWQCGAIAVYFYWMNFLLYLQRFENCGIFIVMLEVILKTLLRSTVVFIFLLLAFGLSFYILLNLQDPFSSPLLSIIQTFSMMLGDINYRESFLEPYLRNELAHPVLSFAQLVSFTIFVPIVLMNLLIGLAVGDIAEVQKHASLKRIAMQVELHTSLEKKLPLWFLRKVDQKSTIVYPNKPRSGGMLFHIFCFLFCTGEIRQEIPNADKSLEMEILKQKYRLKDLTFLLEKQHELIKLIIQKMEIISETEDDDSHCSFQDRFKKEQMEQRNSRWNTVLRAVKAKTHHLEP
IC50 [1],Compound,also measured
64.3 nM,Cn1cnc2ncn(Cc3nc([C@H]4[C@@H]5CN(c6ccc(Cl)c(Cl)c6)C[C@@H]54)no3)c(=O)c21,
20.5 nM,Cn1cnc2ncn(Cc3nc([C@H]4[C@@H]5CN(c6cc(F)cc(Cl)c6)C[C@@H]54)no3)c(=O)c21,
64.4 nM,Cn1cnc2ncn(Cc3nc([C@H]4[C@@H]5CN(c6cccc(C(F)F)c6)C[C@@H]54)no3)c(=O)c21,
295 nM,CC(=O)c1cccc(N2C[C@@H]3[C@H](C2)[C@H]3c2noc(Cn3cnc4ncn(C)c4c3=O)n2)c1,
190 nM,O=c1c2ccncc2ncn1Cc1nc([C@H]2C[C@](F)(c3ccc(Cl)cc3)C2)no1,
12.2 nM,Cc1ccnc2ncn(Cc3nc([C@H]4C[C@H](c5cccc(Cl)c5)C4)no3)c(=O)c12,
38.7 nM,COc1ccc([C@H]2C[C@H](c3noc(Cn4cnc5nccc(C)c5c4=O)n3)C2)cc1,
51.3 nM,Cc1ccnc2ncn(Cc3nc([C@H]4C[C@H](c5ccc(OC(F)F)cc5)C4)no3)c(=O)c12,
63.8 nM,Cc1ccnc2ncn(Cc3nc([C@H]4C[C@H](c5ccc(OC(F)(F)F)cc5)C4)no3)c(=O)c12,
39 nM,Cc1ccnc2ncn(Cc3nc([C@H]4[C@@H]5CN(c6ccccc6)C[C@@H]54)no3)c(=O)c12,
149 nM,Cn1cnc2ncn(Cc3nc([C@@H]4CC[C@@H](c5ccccc5)C4)no3)c(=O)c21,
119 nM,"Cn1cnc2ncn(Cc3nc([C@H]4[C@@H]5CN(c6cccc(OC(F)(F)F)c6)C[C@@H]54)no3)c(=O)c21 [Example Compound 4, 7-methyl-1-[[3-[(1R,5S,6r)-3-(3-trifluoromethoxy)phenyl-3-azabicyclo[3.1.0]hexan-6-yl]-1,2,4-oxadiazol-5-yl]methyl]purin-6-one]",
31 nM,"Cn1cnc2ncn(Cc3nc([C@H]4[C@@H]5CN(c6ccc(F)cc6)C[C@@H]54)no3)c(=O)c21 [Example Compound 7, 7-methyl-1-[[3-[(1R,5S,6 r)-3-(4-fluorophenyl)-3-azabicyclo[3.1.0]hexan-6-yl]-1,2,4-oxadiazol-5-yl]methyl]purin-6-one]",
105 nM,"Cn1cnc2ncn(Cc3nc([C@H]4[C@@H]5CN(c6cccc(OC(F)F)c6)C[C@@H]54)no3)c(=O)c21 [Example Compound 8, 7-methyl-1-[[3-[(1R,5S,6 r)-3-[3-(difluoromethoxy)phenyl]-3-azabicyclo[3.1.0]hexan-6-yl]-1,2,4-oxadiazol-5-yl]methyl] purin-6-one]",
30.9 nM,"Cc1cncc2ncn(Cc3nc([C@H]4C[C@](O)(c5ccc(Cl)cc5)C4)no3)c(=O)c12 [Example Compound 9, 3-((3-((1s,3s)-3-(4-chlorophenyl)-3-hydroxycyclobutyl)-1,2,4-oxadiazol-5-yl)methyl)-5-methylpyrido[3,4-d]pyrimidin-4(3H)-one]",
261 nM,"O=c1c2cccnc2ncn1Cc1nc([C@H]2C[C@](O)(c3ccc(Cl)cc3)C2)no1 [Example Compound 11, 3-((3-((1s,3s)-3-(4-chlorophenyl)-3-hydroxycyclobutyl)-1,2,4-oxadiazol-5-yl)methyl)pyrido[2,3-d]pyrimidin-4(3H)-one]",

# Second part, the compound before the results:
Compound,IC50 [1],also measured
Cn1cnc2ncn(Cc3nc([C@H]4[C@@H]5CN(c6ccccc6Cl)C[C@@H]54)no3)c(=O)c21,77.3 nM,
Cn1cnc2ncn(Cc3nc([C@H]4[C@@H]5CN(c6cc(Cl)ccc6F)C[C@@H]54)no3)c(=O)c21,12.5 nM,
Cn1cnc2ncn(Cc3nc([C@H]4[C@@H]5CN(c6ccc(F)c(Cl)c6)C[C@@H]54)no3)c(=O)c21,9.78 nM,
Cn1cnc2ncn(Cc3nc([C@H]4[C@@H]5CN(c6cccc(SC(F)(F)F)c6)C[C@@H]54)no3)c(=O)c21,300 nM,
Cn1cnc2ncn(Cc3nc([C@H]4[C@@H]5CN(c6ccc7c(c6)CCC7)C[C@@H]54)no3)c(=O)c21,111 nM,
Cn1cnc2ncn(Cc3nc([C@H]4[C@@H]5CN(c6cccc(C7CC7)c6)C[C@@H]54)no3)c(=O)c21,112 nM,
O=c1c2cccnc2ncn1Cc1nc([C@H]2C[C@H](c3cccc(Cl)c3)C2)no1,49 nM,
O=c1c2cccnc2ncn1Cc1nc([C@H]2C[C@](F)(c3ccc(Cl)cc3)C2)no1,20.2 nM,
O=c1c2cccnc2ncn1Cc1nc([C@H]2C[C@](O)(c3cccc(Cl)c3)C2)no1,281 nM,
Cc1ccnc2ncn(Cc3nc([C@H]4C[C@](O)(c5cccc(Cl)c5)C4)no3)c(=O)c12,57.8 nM,
Cc1cncc2ncn(Cc3nc([C@H]4[C@@H]5CN(c6ccccc6)C[C@@H]54)no3)c(=O)c12,14.6 nM,
Cc1cncc2ncn(Cc3nc([C@H]4[C@@H]5CN(c6cccc(Cl)c6)C[C@@H]54)no3)c(=O)c12,81.5 nM,
Cn1cnc2ncn(Cc3nc([C@H]4[C@@H]5CN(c6ccc7c(cnn7C)c6)C[C@@H]54)no3)c(=O)c21,141 nM,
Cn1cnc2ncn(Cc3nc([C@H]4[C@@H]5CN(c6ccc7ccncc7c6)C[C@@H]54)no3)c(=O)c21,69.2 nM,
Cn1cnc2ncn(Cc3nc([C@H]4[C@@H]5CN(c6ccc7ncccc7c6)C[C@@H]54)no3)c(=O)c21,166 nM,
Cn1cnc2ncn(Cc3nc([C@H]4[C@@H]5CN(c6cnc7ccccc7c6)C[C@@H]54)no3)c(=O)c21,169 nM,
Cn1cnc2ncn(Cc3nc([C@H]4[C@@H]5CN(c6cncc(Cl)c6)C[C@@H]54)no3)c(=O)c21,287 nM,
Cn1cnc2ncn(Cc3nc([C@H]4C[C@H](c5ccc(OC(F)F)cc5)C4)no3)c(=O)c21,142 nM,
Cn1cnc2ncn(Cc3nc([C@H]4C[C@H](c5ccc(OC(F)(F)F)cc5)C4)no3)c(=O)c21,196 nM,
"1-((3-((1R,5S,6r)-3-(3-fluorophenyl)-3-azabicyclo[3.1.0]hexan-6-yl)-1,2,4-oxadiazol-5-yl)methyl)-7-methyl-1,7-dihydro-6H-purin-6-one-2-d [Example Compound 89]",31.1 nM,
"1-((3-((1r,3r)-3-((3-chlorophenyl)difluoromethyl) cyclobutyl)-1,2,4-oxadiazol-5-yl)methyl)-7-methyl-1,7-dihydro-6H-purin-6-one [Example Compound 81]",143 nM,
"Cn1cnc2ncn(Cc3nc([C@@H]4[C@H]5Cc6ccccc6[C@H]54)no3)c(=O)c21 (stereo in doubt) [Example Compound 2, 7-methyl-1-[[3-[rac-(1R,1aR,6aS)-1,1a,6,6a-tetrahydrocyclopropa[a]inden-1-yl]-1,2,4-oxadiazol-5-yl]methyl]purin-6-one]",,IC50 [2]: 277 nM
"Cn1cnc2ncn(Cc3nc([C@H]4[C@@H]5Cc6ccccc6[C@@H]54)no3)c(=O)c21 (stereo in doubt) [Example Compound 3, 7-methyl-1-[[3-[rac-(1S,1aS,6aR)-1,1a,6,6a-tetrahydrocyclopropa[a]inden-1-yl]-1,2,4-oxadiazol-5-yl]methyl]purin-6-one]",,IC50 [2]: 588 nM
"Cc1ccnc2ncn(Cc3nc([C@@H]4[C@H]5Cc6ccccc6[C@H]54)no3)c(=O)c12 (stereo in doubt) [Example Compound 14, 5-methyl-3-[[3-[rac-(1S,1aS,6aR)-1,1a,6,6a-tetrahydrocyclopropa[a]inden-1-yl]-1,2,4-oxadiazol-5-yl]methyl]pyrido[2,3-d]pyrimidin-4-one]",,IC50 [2]: 119 nM
"Cc1ccnc2ncn(Cc3nc([C@H]4[C@@H]5Cc6ccccc6[C@@H]54)no3)c(=O)c12 (stereo in doubt) [Example Compound 15, 5-methyl-3-[[3-[rac-(1R,1 aR,6aS)-1,1a,6,6a-tetrahydrocyclopropa[a]inden-1-yl]-1,2,4-oxadiazol-5-yl]methyl]pyrido[2,3-d]pyrimidin-4-one]",,IC50 [2]: 305 nM
"Cc1cncc2ncn(Cc3nc([C@@H]4[C@H]5Cc6ccccc6[C@H]54)no3)c(=O)c12 (stereo in doubt) [Example Compound 19, 5-methyl-3-[[3-[rac-(1R,1 aR,6aS)-1,1a,6,6a-tetrahydrocyclopropa[a]inden-1-yl]-1,2,4-oxadiazol-5-yl]methyl]pyrido[3,4-d]pyrimidin-4-one]",,IC50 [2]: 29.9 nM
"Cc1cncc2ncn(Cc3nc([C@H]4[C@@H]5Cc6ccccc6[C@@H]54)no3)c(=O)c12 (stereo in doubt) [Example Compound 20, 5-methyl-3-[[3-[rac-(1S,1aS,6aR)-1,1a,6,6a-tetrahydrocyclopropa[a]inden-1-yl]-1,2,4-oxadiazol-5-yl]methyl]pyrido[3,4-d]pyrimidin-4-one]",,IC50 [2]: 94.3 nM
"Cn1cnc2ncn(Cc3nc([C@H]4C[C@H](C(F)(F)c5cccc(F)c5)C4)no3)c(=O)c21 (stereo in doubt) [Example Compound 248, 1-[[3-[trans-3-[difluoro-(3-fluorophenyl)methyl]cyclobutyl]-1,2,4-oxadiazol-5-yl]methyl]-7-methyl-purin-6-one]",11.1 nM,"IC50 (read-out: hTRPA1 IC50 (90 min), compounds incubated 90 minutes at room temperature before cinnamaldehyde agonist): 5.5 nM"
"Cn1cnc2ncn(Cc3nc([C@H]4[C@@H]5CN(c6ccc(OC(F)(F)F)cc6)C[C@@H]54)no3)c(=O)c21 [Example Compound 6, 7-methyl-1-[[3-[(1R,5S,6 r)-3-[4-(trifluoromethoxy)phenyl]-3-azabicyclo[3.1.0]hexan-6-yl]-1,2,4-oxadiazol-5-yl]methyl]purin-6-one]",42.4 nM,
"Cc1ccnc2ncn(Cc3nc([C@H]4C[C@](O)(c5ccc(Cl)cc5)C4)no3)c(=O)c12 [Example Compound 10, 3-((3-((1s,3s)-3-(4-chlorophenyl)-3-hydroxycyclobutyl)-1,2,4-oxadiazol-5-yl)methyl)-5-methylpyrido[2,3-d]pyrimidin-4(3H)-one]",141 nM,
